# Test results reported in US20230149358A1, “COMBINATION CANCER THERAPY WITH PENTAAZA MACROCYCLIC RING COMPLEX AND HORMONE THERAPY AGENT” (Galera Labs, LLC, priority 2020, published 2023).
# Tests used:
# MCF7-MnSOD^K68Q cells = test: Clonogenic cell survival, MCF7-MnSOD^K68Q cells; format: cell-based, human
# Experimental: FIGS. 25a-25b show clonogenic cell survival studies in MCF7-MnSOD^K68Q cells exposed to either: Fulv at 100 nM (in FIG. 25a); or Palb at 0.5 μM (in FIG. 25b) using standard methods. […] Error bars are ±1 SEM. Experiments in triplicate. *** p<0.001.
# Clonogenic cell survival assay. For the clonogenic survival analysis, exponentially growing cells were replated using appropriate dilutions, and clonogenic survival was evaluated after 14 days in regular growth medium. Cells were stained with crystal violet, and colonies of >50 cells were counted and utilized to calculate clonogenic survival^46.
# To evaluate clonogenic cell survival by testing cell growth at low density, 500 exponentially growing cells were plated in triplicate in 6-well plates using serial dilution, and the growth of the cells was examined throughout 14 days in regular growth medium. Cells were fixed with 70% ethanol for 5 minutes and then stained with 0.5% crystal violet (in 25% methanol) for 20 minutes. Photos of stained plates were taken, and colonies of more than 50 cells were counted and used to calculate clonogenic survival.
# T47D-MnSOD^K68Q cells = test: Clonogenic cell survival, T47D cells expressing MnSOD^K68Q; format: cell-based, human; details: 1 μM hydroxy-Tam
# Experimental: FIGS. 14a-14g are images and plots that illustrate that loss of SIRT3-induced MnSOD-K68 deacetylation leads to hydroxy-Tam resistance in human breast cancer cells. With respect to FIG. 14a, T47D-MnSOD^WT, T47D-MnSOD^K68R, and T47D-MnSOD^K68D permanent cell lines were selected for hydroxy-Tam resistance in 1 μM for 3 months, and clonogenic cell survival experiments were completed. With respect to FIG. 14b, T47D-shCtrl and T47D-shSIRT3 permanent cell lines were exposed to 1 μM 4-hydroxy-Tam For 24 h (HT), and clonogenic cell survival experiments were done. With respect to FIG. 14c, T47D and T47D-HTR cells, with and without exposure to 1 μM 4-hydroxy-Tam for 24 h (HT), were measured for cytotoxicity by clonogenic survival experiments. […] The cell lysates were analyzed by immunoblotting with anti-MnSOD-K122-Ac (validated as a SIRT3 deacetylation target in Tao et al., 2010, Cancer Cell), anti-MnSOD, anti-OSCP-K139-Ac (validated as a SIRT3 deacetylation target in Tao et al., 2010, Cancer Cell), anti-OSCP, anti-IDH2K413-Ac (validated as a SIRT3 deacetylation target in Someya et al., 2010, Cancer Cell), anti-IDH2, and anti-actin. […]
# Clonogenic cell survival assay. For the clonogenic survival analysis, exponentially growing cells were replated using appropriate dilutions, and clonogenic survival was evaluated after 14 days in regular growth medium. […]
# [1] = tested on: MCF7 cells overexpressing MnSOD^K68Q; test: MTT assay, MCF7 cells overexpressing MnSOD^K68Q; format: cell-based, human; details: 48 hours
# Experimental: In FIGS. 28a-28b, cell lysates of 250 nM, 500 nM, 1 μM cisplatin-resistant and […], 1 nM and 2 nM doxorubicin-resistant MCF7 cells (cultured in drug-containing media for 3 months) were collected and immunoblotted for MnSOD-K68-Ac, MnSOD, actin and tubulin. In FIG. […] After 48 hours, MTT assay is conducted to determine the cell viability after chemotherapy drug treatment.
# Cell proliferation was measured using MTT proliferation assay kit (ab211091). 10,000 exponentially growing cells were plated in regular growth medium per well into 96-well plates in triplicate. Cells were treated with specified drugs after overnight and incubated for 48 hours. The treatment media was then discarded and a mixture of 50 μl MTT reagent and 50 μl serum-free media was added into each well and incubated for 3 hours at 37° C. 150 μl of MTT solvent was then added, and the plate was shaken for 15 minutes avoiding light. The absorbance was read at OD=590 nm and used to evaluate cell proliferation.
# [2] = tested on: LNCaP-MnSOD^K68Q xenografts; test: LNCaP-MnSOD^K68Q hindlimb xenograft growth in nude mice; format: in vivo; details: male nude mice; GC4419 10 mg/kg once per week, ENZ 25 mg/kg/day; 46 days
# Experimental: In FIG. 21(a), clonogenic cell survival experiments were performed in LNCaP-ENZR (left two bars) and LNCaP-MnSOD^K68Q (right two bars) treated with ENZ, with or without GC4419 (20 μM) for 5 days. […] Tumor volumes were measured three times a week for 46 days. For each group n=10. Error bars ±1 SEM. All experiments done in triplicate. **p<0.01.
# Thus, it was surmised that restoring SOD activity, using the pentaaza macrocyclic ring complex GC4419, an agent that chemically detoxifies superoxide, would reverse/convert the ENZR to a sensitive phenotype. […] The dose and pharmacokinetics for GC4419 is based on data for murine models^92-93.
# rat [3] = details: rat model of inflammation; cited from earlier work
# adult mice = details: lethal total body irradiation of adult mice; cited from earlier work
# rat [4] = details: rat model of collagen-induced arthritis; cited from earlier work
# hamster = details: acute radiation-induced oral mucositis; cited from earlier work
# colon of rats = details: experimental model of colitis; cited from earlier work
compound,measurement,setting,value
4-hydroxytamoxifen [hydroxy-Tam],"cytotoxicity (clonogenic survival), versus cells expressing MnSOD WT or K68R","MCF7-MnSOD^K68Q cells; MCF7 cells expressing MnSOD^K68Q, 1 μM hydroxy-Tam for 5 days",exhibited significant resistance to the cytotoxicity
same,"cytotoxicity (clonogenic survival), versus cells expressing MnSOD WT or K68R",T47D-MnSOD^K68Q cells,exhibited significant resistance to the cytotoxicity
"[NH2][Pt]([NH2])([Cl])[Cl] [CDDP, cisplatin]","cell viability (MTT), resistance",[1]; CDDP 1 μM,exhibited higher resistance
"COc1cccc2c1C(=O)c1c(O)c3c(c(O)c1C2=O)C[C@@](O)(C(=O)CO)C[C@@H]3O[C@H]1C[C@H](N)[C@H](O)[C@H](C)O1 [DXR, doxorubicin]","cell viability (MTT), resistance",[1]; DXR 2 nM,exhibited higher resistance
"CNC(=O)c1ccc(N2C(=S)N(c3ccc(C#N)c(C(F)(F)F)c3)C(=O)C2(C)C)cc1F [ENZ, enzalutamide, reference compound]",xenograft growth (tumor volume),[2],exhibited similar growth characteristics as the control LNCaP cells
"C[C@]12CC[C@@H]3c4ccc(O)cc4C[C@@H](CCCCCCCCC[S+]([O-])CCCC(F)(F)C(F)(F)F)[C@H]3[C@@H]1CC[C@@H]2O (some centres unmarked) [Fulv, Fulvestrant]","clonogenic cell survival, resistance versus MCF7-MnSOD^WT",MCF7-MnSOD^K68Q cells; Fulv at 100 nM,exhibited resistance
[Cl-].[Cl-].[Mn+2].c1cc2nc(c1)CN[C@@H]1CCCC[C@H]1NCCN[C@@H]1CCCC[C@H]1NC2 [GC4403],inflammation,rat [3],inhibit inflammation
same,radiation damage,adult mice,attenuate the radiation damage
same,joint disease,rat [4],prevent joint disease
same,radiation damage,hamster,attenuate the radiation damage
same,injury to the colon,colon of rats,very significantly reduce the injury to the colon
